From patent US9085576B2 (AMGEN INC., priority 2013, dated 2015)

How the values were obtained:
[1] = target: Beta Secretase enzyme (BACE) (Homo sapiens (Human), UniProt P56817); experiment: In vitro enzymatic BACE FRET assay; format: biochemical; conditions: read-out: BACE1 Enzyme assay IC50
Cathepsin D (Cat D) = Cathepsin D (Cat D) (Homo sapiens (Human), UniProt P07339); experiment: In vitro enzymatic Cathepsin D (Cat D) FRET assay; format: biochemical; conditions: read-out: CatD IC50
Method: In Vitro Enzymatic Cathepsin D (Cat D) FRET (Fluorescence Resonance Energy Transfer) Assay
Recombinant Cat D was expressed in CHO cells. The assay buffer for CathepsinD is 0.05 M citrate pH 3.5, 10% DMSO final, 5 mM CHAPS. […] The assays are effectively started by the addition of different FRET substrates (20 nM for Cat D) and the combination is incubated for one hour. The FRET assay is terminated with by addition of Tris buffer, which raises the pH to neutrality, and the fluorescence is determined. […] Proteolytic cleavage of the FRET substrate releases quenching of fluorescence (Cat D excitation 500 nm and emission 580 nm).

BACE = BACE (Homo sapiens (Human), UniProt P56817); experiment: In vitro BACE cell-based assay (Aβ40 in conditioned medium, sandwich ELISA)
BACE, sequence (P56817 46-501, species assumed): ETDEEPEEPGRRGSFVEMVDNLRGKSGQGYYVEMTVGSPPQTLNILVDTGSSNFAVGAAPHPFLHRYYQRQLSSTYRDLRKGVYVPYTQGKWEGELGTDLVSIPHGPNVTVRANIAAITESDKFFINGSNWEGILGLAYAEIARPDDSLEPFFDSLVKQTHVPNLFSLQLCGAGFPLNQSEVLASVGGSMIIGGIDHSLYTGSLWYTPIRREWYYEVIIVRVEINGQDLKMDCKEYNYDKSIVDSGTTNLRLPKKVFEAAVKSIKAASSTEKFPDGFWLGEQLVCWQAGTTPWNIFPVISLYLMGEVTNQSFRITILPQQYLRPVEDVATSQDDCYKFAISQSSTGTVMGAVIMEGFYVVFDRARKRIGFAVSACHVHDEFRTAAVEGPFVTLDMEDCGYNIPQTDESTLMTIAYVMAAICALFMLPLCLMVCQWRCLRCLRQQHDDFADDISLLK

Cathepsin D (Cat D), sequence (P07339 65-412, species assumed): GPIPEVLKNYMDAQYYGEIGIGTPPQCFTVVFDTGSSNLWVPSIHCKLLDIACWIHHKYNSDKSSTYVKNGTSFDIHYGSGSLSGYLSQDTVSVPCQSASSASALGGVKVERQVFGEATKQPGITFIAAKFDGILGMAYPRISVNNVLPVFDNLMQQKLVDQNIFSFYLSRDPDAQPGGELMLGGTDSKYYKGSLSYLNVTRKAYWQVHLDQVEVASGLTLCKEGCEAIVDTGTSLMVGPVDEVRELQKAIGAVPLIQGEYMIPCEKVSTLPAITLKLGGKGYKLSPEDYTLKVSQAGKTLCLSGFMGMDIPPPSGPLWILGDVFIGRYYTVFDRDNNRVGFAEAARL
Beta Secretase enzyme (BACE), sequence (P56817 46-501): as the sequence (P56817 46-501, species assumed) above

Structure (SMILES) | IC50 [1] [µM] | IC50 (Cathepsin D (Cat D)) [µM] | IC50 (BACE) [µM]
NC1=N[C@](CF)(c2cc(Nc3nccc4cc(Cl)cnc34)cc(F)c2F)[C@@H]2C[C@@H]2O1 [Example 341, (1S,5S,6S)-5-(5-((3-chloro-1,7-naphthyridin-8-yl)amino)-2,3-difluorophenyl)-5-(fluoromethyl)-2-oxa-4-azabicyclo[4.1.0]hept-3-en-3-amine] | 3.41 | 2890 | 3.41
NC1=N[C@](CF)(c2cc(Nc3nccc4cc(Cl)cnc34)cc(F)c2F)[C@H]2C[C@H]2O1 [Example 342, (1R,5S,6R)-5-(5-((3-chloro-1,7-naphthyridin-8-yl)amino)-2,3-difluorophenyl)-5-(fluoromethyl)-2-oxa-4-azabicyclo[4.1.0]hept-3-en-3-amine] | 0.0598 | 50.6 | 0.12
N#Cc1cnc2c(Nc3ccc(F)c([C@@]4(CF)N=C(N)O[C@@H]5C[C@@H]54)c3)ncc(F)c2c1 [Example 343, 8-((3-((1R,5S,6R)-3-amino-5-(fluoromethyl)-2-oxa-4-azabicyclo[4.1.0]hept-3-en-5-yl)-4-fluorophenyl)amino)-5-fluoro-1,7-naphthyridine-3-carbonitrile] | 0.0949 | > 44.4 | 0.0546
COc1cnc2c(Nc3ccc(F)c([C@@]4(CF)N=C(N)O[C@@H]5C[C@@H]54)c3)ncc(F)c2c1 [Example 344, (1R,5S,6R)-5-(2-fluoro-5-((5-fluoro-3-methoxy-1,7-naphthyridin-8-yl)amino)phenyl)-5-(fluoromethyl)-2-oxa-4-azabicyclo[4.1.0]hept-3-en-3-amine] | 430 | 596 | 0.0982
NC1=N[C@](CF)(c2cc(Nc3nccc4cc(Cl)cnc34)ccc2F)[C@H]2C[C@H]2O1 [Example 345, (1R,5S,6R)-5-(5-((3-chloro-1,7-naphthyridin-8-yl)amino)-2-fluorophenyl)-5-(fluoromethyl)-2-oxa-4-azabicyclo[4.1.0]hept-3-en-3-amine] | 0.0713 | 282 | 0.0543
N#Cc1cnc2c(Nc3ccc(F)c([C@@]4(CF)N=C(N)O[C@@H]5C[C@@H]54)c3)nccc2c1 [Example 346, 8-((3-((1R,5S,6R)-3-amino-5-(fluoromethyl)-2-oxa-4-azabicyclo[4.1.0]hept-3-en-5-yl)-4-fluorophenyl)amino)-1,7-naphthyridine-3-carbonitrile] | 0.0539 | 205 | 0.0176
NC1=N[C@](CF)(c2cc(Nc3ncnc4cc(Cl)cnc34)ccc2F)[C@H]2C[C@H]2O1 [Example 347, (1R,5S,6R)-5-(5-((7-chloropyrido[3,2-d]pyrimidin-4-yl)amino)-2-fluorophenyl)-5-(fluoromethyl)-2-oxa-4-azabicyclo[4.1.0]hept-3-en-3-amine] | 0.133 | 106 | 0.0624
COc1cnc2c(Nc3ccc(F)c([C@@]4(C(F)F)N=C(N)O[C@@H]5C[C@@H]54)c3)nccc2c1 [Example 348, (1R,5S,6R)-5-(difluoromethyl)-5-(2-fluoro-5-((3-methoxy-1,7-naphthyridin-8-yl)amino)phenyl)-2-oxa-4-azabicyclo[4.1.0]hept-3-en-3-amine] | 0.456 | 738 | 0.106
N#Cc1cnc2c(Nc3ccc(Cl)c([C@@]4(C(F)F)N=C(N)O[C@@H]5C[C@@H]54)c3)ncc(F)c2c1 [Example 350, 8-((3-((1R,5S,6R)-3-amino-5-(difluoromethyl)-2-oxa-4-azabicyclo[4.1.0]hept-3-en-5-yl)-4-chlorophenyl)amino)-5-fluoro-1,7-naphthyridine-3-carbonitrile] | 0.0319 | > 14.8 | 0.0628
N#Cc1cnc2c(Nc3ccc(F)c([C@@]4(C(F)F)N=C(N)O[C@@H]5C[C@@H]54)c3)ncc(F)c2c1 [Example 352, 8-((3-((1R,5S,6R)-3-amino-5-(difluoromethyl)-2-oxa-4-azabicyclo[4.1.0]hept-3-en-5-yl)-4-fluorophenyl)amino)-5-fluoro-1,7-naphthyridine-3-carbonitrile] | 0.0391 | 192 | 0.0593
NC1=N[C@@](c2cc(Nc3ncnc4cc(Cl)cnc34)ccc2F)(C(F)F)[C@H]2C[C@H]2O1 [Example 353, (1R,5S,6R)-5-(5-((7-chloropyrido[3,2-d]pyrimidin-4-yl)amino)-2-fluorophenyl)-5-(difluoromethyl)-2-oxa-4-azabicyclo[4.1.0]hept-3-en-3-amine] | 0.0639 | 141 | 0.0503
COc1cnc2c(Nc3ccc(F)c([C@]4(CF)N=C(N)O[C@H]5C[C@H]54)c3F)nccc2n1 [Example 354, (1S,5R,6S)-5-(2,6-difluoro-3-((2-methoxypyrido[3,4-b]pyrazin-5-yl)amino)phenyl)-5-(fluoromethyl)-2-oxa-4-azabicyclo[4.1.0]hept-3-en-3-amine] | 12.7 | 292 | 1.46
COc1cnc2c(Nc3ccc(F)c([C@@]4(CF)N=C(N)O[C@@H]5C[C@@H]54)c3F)nccc2n1 [Example 355, (1R,5S,6R)-5-(2,6-difluoro-3-((2-methoxypyrido[3,4-b]pyrazin-5-yl)amino)phenyl)-5-(fluoromethyl)-2-oxa-4-azabicyclo[4.1.0]hept-3-en-3-amine] | > 40 | 2750 | > 15.6
CC(C)Oc1cnc2c(Nc3cc(Cl)c(F)c([C@@]4(CF)N=C(N)O[C@@H]5C[C@@H]54)c3)nccc2n1 [Example 357, (1R,5S,6R)-5-(3-chloro-2-fluoro-5-((2-isopropoxypyrido[3,4-b]pyrazin-5-yl)amino)phenyl)-5-(fluoromethyl)-2-oxa-4-azabicyclo[4.1.0]hept-3-en-3-amine] | 0.375 | 323 | 0.918
Cn1cc2ccnc(Nc3ccc(F)c([C@@]4(C(F)F)N=C(N)O[C@@H]5C[C@@H]54)c3)c2n1 [Example 358] | 2.09 | > 400 | 0.134
NC1=N[C@](CF)(c2cc(Nc3nccc4cc(Cl)cnc34)ccc2Cl)[C@H]2C[C@H]2O1 [Example 359, (1R,5S,6R)-5-(2-chloro-5-((3-chloro-1,7-naphthyridin-8-yl)amino)phenyl)-5-(fluoromethyl)-2-oxa-4-azabicyclo[4.1.0]hept-3-en-3-amine] | 0.0291 | 251 | 0.0656
COc1cnc2c(Nc3ccc(Cl)c([C@@]4(CF)N=C(N)O[C@@H]5C[C@@H]54)c3)nccc2c1 [Example 360, (1R,5S,6R)-5-(2-chloro-5-((3-methoxy-1,7-naphthyridin-8-yl)amino)phenyl)-5-(fluoromethyl)-2-oxa-4-azabicyclo[4.1.0]hept-3-en-3-amine] | 1.26 | 843 | 0.139
NC1=N[C@@](c2cc(Nc3nccc4cc(Cl)cnc34)ccc2F)(C(F)F)[C@H]2C[C@H]2O1 [Example 362, (1R,5S,6R)-5-(5-((3-chloro-1,7-naphthyridin-8-yl)amino)-2-fluorophenyl)-5-(difluoromethyl)-2-oxa-4-azabicyclo[4.1.0]hept-3-en-3-amine] | 0.0335 | 400 | 0.254
